Experimental data published in paper PMC7126891 (Bioorganic & Medicinal Chemistry, 2013).
Like-named read-outs stand apart in the source and are kept apart here.

Tests used:
SARS-CoV 3CL^pro [1] = molecular target: T1, SARS-CoV 3CL^pro (Severe acute respiratory syndrome coronavirus, UniProt P0C6X7); assay type: biochemical
SARS-CoV 3CL^pro [2] = molecular target: T1, SARS-CoV 3CL^pro
SARS-CoV 3CL^pro [3] = molecular target: T1, SARS-CoV 3CL^pro; assay: biochemical; assay type: binding

SMILES	Cell-free trans-cleavage inhibition type (SARS-CoV 3CL^pro [1])	SI (CC50/IC50) (SARS-CoV 3CL^pro [2])	also measured
Oc1cc(O)cc(Oc2c(O)cc(O)c3c2Oc2c(O)cc(O)cc2O3)c1 [Compound 3, eckol]	Competitive (8.2 ± 0.9)	<1	fold higher activity than triphloretol A (2) (SARS-CoV 3CL^pro [1]): 20 fold
Oc1cc(O)c2oc3cc(O)c4oc5cc(O)cc(O)c5oc4c3oc2c1 [Compound 4, dioxinodehydroeckol]	–	>1.4	–
Oc1cc(O)cc(Oc2c(Oc3c(O)cc(O)cc3O)cc(O)c3c2Oc2c(O)cc(O)cc2O3)c1 [Compound 5, 2-phloroeckol]	Competitive (24.0 ± 1.5)	>1.8	fold increase of inhibitory activity versus 7-phloroeckol (6) (SARS-CoV 3CL^pro [1]): ~3 fold
Oc1cc(O)cc(Oc2c(O)cc(O)c3c2Oc2c(O)cc(Oc4c(O)cc(O)cc4O)cc2O3)c1 [Compound 6, 7-phloroeckol]	Competitive (19.3 ± 1.4)	>1.8	–
Oc1cc(O)c(Oc2cc(O)cc(O)c2Oc2cc(O)cc(O)c2-c2c(O)cc(O)cc2O)c(O)c1 [Compound 7, fucodiphloroethol G]	Competitive (63.5 ± 7.1)	–	SI (CC50/IC50) (SARS-CoV 3CL^pro [2]; African green monkey): >1.1
Oc1cc(O)cc(Oc2c(O)cc(O)c3c2Oc2c(O)cc(Oc4c(O)cc(Oc5c(O)cc(O)c6c5Oc5c(O)cc(O)cc5O6)cc4O)cc2O3)c1 [Compound 8, dieckol]	Competitive (2.4 ± 0.2)	>2.9	kon (SARS-CoV 3CL^pro [3]; read-out: association rate constant kon): 7.35e+07 M⁻¹ s⁻¹; koff (SARS-CoV 3CL^pro [3]; read-out: dissociation rate constant koff): 0.000843 s⁻¹
Oc1cc(O)cc(Oc2c(O)cc(O)c3c2Oc2c(O)cc4oc5c(Oc6cc(O)cc(O)c6)c(O)cc(O)c5c4c2O3)c1 [Compound 9, phlorofucofuroeckol A]	Competitive (10.6 ± 1.0)	>1.1	–
